Bridge positions count the residues as written; N and C are the ends. Square brackets hold non-standard residues; d marks the D form. Peptide text beside a SMILES is read from it. Sar = CNCC(=O)O

We go through 14 compounds from patent US5459077A, “Methods for modelling tertiary structures of biologically active ligands and for modelling agonists and antagonists thereto” (PepMetics, Inc., priority 1993, dated 1995).

One test has as its system rat isolated uterus. Format: cell-based. The following applies: for agonist / antagonist character in words: footnotes of Table I; for AGONIST ACTIVITY: relative to Angiotensin II = 100. The procedure:
^b = Agonist Activity was measured via a rat isolated uterus bioassay
as described by Matsoukas et al., J. Med. Chem., 31, pp. 1418-1421 (1988)
Results are reported relative to Angiotensin II wherein Angiotensin II =
Analogs of Angiotensin II were synthesized, purified and bioassayed by method described by Matsoukas et al., J. Med. Chem., 31, pp. 1418-1421 (1988). 1,2-propanediol [Pr(OH)2 ] was dried by refluxing over calcium oxide for 8 hours, collected by distillation and stored over a molecular sieve. Water content was estimated by ^1 H NMR or by the Karl Fisher method. Isopropanol (PrOH) was of HPLC grade (Caledon Laboratories Ltd) and was expected to contain less than 1% water. Dimethyl sulfoxide (DMSO) and trifluoroethanol (TFE) were used without further treatment. Aqueous solvents were prepared from distilled water which had been passed through Fisher ion-exchange cartridges. N-acetyl-tyrosine-amide (NAYA) was obtained from Sigma. Sodium dodecylsulfate (SDS) was obtained from BDH biochemicals (specially pure) and was used without further treatment.
[Sar^1 ]Angiotensin II was synthesized by the solid phase technique and purified to homogeneity by reversed-phase HPLC using methods described by Matsoukas et al., J. Med. Chem. 31(7), pp. 1418-1421 (1988). The synthetic peptide gave the required amino acid analysis and appeared as a single product in two thin layer chromatography (TLC) systems. [Sar^1 ]Angiotensin II had 180% of the bioactivity of Angiotensin II in the rat uterus assay which is also described by Matsoukas et al., supra. Since HPLC afforded the trifluoroacetate salt of the peptide, [Sar^1 ]Angiotensin II was neutralized by passage through a column (1.5×3 cm) of carboxymethylcellulose (Whatman CM23) cation exchange resin. The peptide (10 mg) was first applied to the column in 0.01M ammonium acetate at pH 5 (5 ml) and then eluted with 0.5M ammonium acetate at pH 8 (10 ml). The effluent obtained at pH 8 was lyophilized thrice and 5 mg of the product was dissolved in 0.5 ml of DMSO-d6 and two drops of D2 O were added. Argon was bubbled through the sample for 5 minutes before the NMR tube was sealed.

Test [1] can be described thus: agonist activity of oxytocin analog (assay not described).

As to `CC[C@H](C)[C@H](NC(=O)[C@H](Cc1ccc(O)cc1)NC(=O)[C@@H](NC(=O)[C@H](CCCNC(=N)N)NC(=O)CNC)C(C)C)C(=O)N[C@@H](C)C(=O)N1CCC[C@H]1C(=O)N[C@@H](Cc1ccccc1)C(=O)O` [Ligand G, [Sar^1 Ala^6]Angiotensin II] (H-[Sar]RVYIAPF-OH), in the test with rat isolated uterus, the “agonist / antagonist character in words” value is on record as “lack of significant agonist activity”.

As for `CC[C@H](C)[C@H](NC(=O)[C@H](Cc1ccc(O)cc1)NC(=O)[C@@H](NC(=O)[C@H](CCCNC(=N)N)NC(=O)CNC)C(C)C)C(=O)N[C@@H](Cc1c[nH]cn1)C(=O)N1CCC[C@H]1C(=O)N[C@@H](CC1CCCCC1)C(=O)O` [D], in the test with rat isolated uterus, the “agonist / antagonist character in words” value is listed as “Potent receptor antagonist with residual agonist activity” and the “AGONIST ACTIVITY” value is 4.

As to `CC[C@H](C)[C@H](NC(=O)[C@H](Cc1ccc(O)cc1)NC(=O)[C@@H](NC(=O)[C@H](CCCNC(=N)N)NC(=O)CNC)C(C)C)C(=O)N[C@@H](Cc1c[nH]cn1)C(=O)N1CCC[C@@H]1C(=O)N[C@@H](Cc1ccccc1)C(=O)O` [I], the “AGONIST ACTIVITY” value in the test with rat isolated uterus is recorded as “less than 0.1”.

Take `CC[C@H](C)[C@H](NC(=O)[C@H](Cc1ccc(O)cc1)NC(=O)[C@@H](NC(=O)[C@H](CCCNC(=N)N)NC(=O)CNC)C(C)C)C(=O)N[C@@H](C)C(=O)N1CCC[C@H]1C(=O)N[C@@H](Cc1ccccc1)C(=O)O` [G] (H-[Sar]RVYIAPF-OH): the “AGONIST ACTIVITY” value with rat isolated uterus is given as “less than 0.1”.

As for `CC[C@H](C)[C@H](NC(=O)[C@H](Cc1ccc(O)cc1)NC(=O)[C@@H](NC(=O)[C@H](CCCNC(=N)N)NC(=O)CNC)C(C)C)C(=O)N[C@@H](Cc1c[nH]cn1)C(=O)N1CCC[C@H]1C(=O)N[C@@H](Cc1ccccc1)C(N)=O` [F], the “AGONIST ACTIVITY” value in the test on rat isolated uterus amounted to 0.2.

In the case of `CC[C@H](C)[C@H](NC(=O)[C@H](Cc1ccc(O)cc1)NC(=O)[C@@H](NC(=O)[C@H](CCCNC(=N)N)NC(=O)CNC)C(C)C)C(=O)N[C@@H](Cc1ccccc1)C(=O)N1CCC[C@H]1C(=O)N[C@@H](Cc1ccccc1)C(=O)O` [C] (H-[Sar]RVYIFPF-OH), the “AGONIST ACTIVITY” value in the test on rat isolated uterus is 7.

Take “[Sar^1 Tyr(Me)^4 ]Angiotensin II [reference compound]”: in the test with rat isolated uterus, the “AGONIST ACTIVITY” value amounted to 100.

As for `CC[C@H](C)[C@@H]1NC(=O)[C@H](Cc2ccc(O)cc2)NC(=O)[C@@H](N)CSSC[C@@H](C(=O)N2CCC[C@H]2C(=O)N[C@@H](CC(C)C)C(=O)NCC(N)=O)NC(=O)[C@H](C)NC(=O)[C@H](CCC(N)=O)NC1=O` [[Ala^5]] (H-CYIQACPLG-NH2; disulfide 1-6), the “agonist activity in words” value in test [1] is given as “no agonist activity”.

With `CC[C@H](C)[C@H](NC(=O)[C@H](Cc1ccc(O)cc1)NC(=O)[C@@H](NC(=O)[C@H](CCCNC(=N)N)NC(=O)CNC)C(C)C)C(=O)N[C@@H](Cc1c[nH]cn1)C(=O)N1CCC[C@H]1C(=O)N[C@@H](Cc1ccccc1)C(N)=O` [Ligand F, [Sar^1 Phe--NH2^8]Angiotensin II], the “agonist / antagonist character in words” value in the test with rat isolated uterus is “lack of significant agonist activity”.

As to “[Tyr(Me)^4 ]Angiotensin III [B, reference compound]”, the “AGONIST ACTIVITY” value with rat isolated uterus came to 27.

Take `CC[C@H](C)[C@H](NC(=O)[C@H](Cc1ccc(O)cc1)NC(=O)[C@@H](NC(=O)[C@@H](N)CCCNC(=N)N)C(C)C)C(=O)N[C@@H](Cc1c[nH]cn1)C(=O)N1CCC[C@H]1C(=O)N[C@@H](CC1CCCCC1)C(=O)O` [E]: in the test with rat isolated uterus, the “agonist / antagonist character in words” value is recorded as “Potent receptor antagonist with residual agonist activity” and the “AGONIST ACTIVITY” value amounted to 5.

Consider `CC[C@H](C)[C@H](NC(=O)[C@H](Cc1ccc(O)cc1)NC(=O)[C@@H](NC(=O)[C@H](CCCNC(=N)N)NC(=O)CNC)C(C)C)C(=O)N[C@@H](Cc1c[nH]cn1)C(=O)N1CCC[C@H]1C(=O)N[C@@H](Cc1ccccc1)C(=O)O` [[Sar^1]Angiotensin II, reference compound], for which the “bioactivity relative to Angiotensin II” value with rat isolated uterus (rat uterus assay) is recorded as 180%.

`CC[C@H](C)[C@H](NC(=O)[C@@H]1CCCN1C(=O)[C@H](Cc1c[nH]cn1)NC(=O)[C@@H](NC(=O)[C@H](Cc1ccc(O)cc1)NC(=O)[C@@H](NC(=O)[C@H](CCCNC(=N)N)NC(=O)CNC)C(C)C)[C@@H](C)CC)C(=O)O` [J]: in the test with rat isolated uterus, the “agonist / antagonist character in words” value is recorded as “Potent receptor antagonist” and the “AGONIST ACTIVITY” value is listed as “less than 0.1”.

Take `CC[C@H](C)[C@H](NC(=O)[C@H](Cc1ccc(O)cc1)NC(=O)[C@@H](NC(=O)[C@@H](N)CCCNC(=N)N)C(C)C)C(=O)N[C@@H](Cc1c[nH]cn1)C(=O)N1CCC[C@H]1C(=O)N[C@@H](Cc1ccccc1)C(=O)O` [K]: the “AGONIST ACTIVITY” value with rat isolated uterus turned out to be 10.
